Assay type in all cases: in vivo
For data set [1], the system named is C57 BL/6 J male mice with the high-fat diet. Briefly: Body weight ratio of mice with the high-fat diet. The conditions noted are these: high-fat feed, 12 weeks, compared with model group. The procedure:
(§1) D-arabitol, L-arabitol, L-arabinose, D-arabinose, and D-xylitol each were prepared with sterile distilled water into a 50 g/L or 20 g/L solution.
(§2) A total of 64 SPF-grade 8-week-old C57 BL/6 J male mice were adaptively raised for 3 d with a normal diet in a barrier facility having an independently-ventilated cage (IVC), tested for an initial body weight, and randomly divided into 8 groups. On day 4, the mice in the 8 groups were administered with a normal feed or a high-fat feed, and drinking water for mice in an administration group was replaced with drug-containing water. Each mouse had free access to food and drinking water, and a body weight was recorded weekly. The grouping, diets, and administration were as follows: • (1) normal diet group (Chow): normal feed+sterile distilled water; • (2) high-fat diet group (HFD): high-fat feed+sterile distilled water; • (3) 50 g/L L-arabitol group (HFD+50 g/L L-Arabitol): high-fat feed+50 g/L L-arabitol; • (4) 20 g/L D-arabitol group (HFD+20 g/L D-Arabitol): high-fat feed+20 g/L D-arabitol; • (5) 50 g/L D-arabitol group (HFD+50 g/L D-Arabitol): high-fat feed+50 g/L D-arabitol; • (6) 50 g/L L-arabinose group (HFD+50 g/L L-Arabinose): high-fat feed+50 g/L L-arabinose; • (7) 50 g/L D-arabinose group (HFD+50 g/L D-Arabinose): high-fat feed+50 g/L D-arabinose; and • (8) 50 g/L xylitol group (HFD+50 g/L Xylitol): high-fat feed+50 g/L xylitol.
Mouse body weight ratio: a body weight at the nth week (g)×100%/an initial body weight (g). Data was subjected to statistical tests with Graphpad Prism v9.0. Two-way ANOVA and Tukey's multiple comparison tests were adopted for body weight data, and one-way ANOVA and Dunnett's multiple comparison tests were adopted for other data.

Data set [2] has the same test system. The experiment in a line: Blood lipid levels (total TG, LDL-c, HDL-c) in serum of mice with the high-fat diet. The conditions noted are these: high-fat feed, compared with high-fat diet group. The procedure: as §1, §2
(§3) At the end of the experiment, each mouse was anesthetized by intraperitoneal injection of sodium pentobarbital with a concentration of 5 mg/mL, the injection volume was 0.1 mL/10 g, and the injection dose was 50 mg/kg, and then blood was collected from the orbit. The mouse was sacrificed through cervical dislocation, and a liver was collected, rinsed with normal saline, and dried with a filter paper. A liver lobe was taken and fixed in paraformaldehyde. The remaining liver was quickly frozen with liquid nitrogen, and stored at −80° C. The blood was allowed to stand for 30 min and then centrifuged at 3,500 rpm for 10 min to obtain a supernatant, and the supernatant was collected and stored at −80° C.
A serum sample was taken, thawed at 4° C., and tested for serum HDL-c, LDL-c, total TG, ALT, and aspartate aminotransferase (AST) according to instructions of kits.

Data set [3] shares this test system. The experiment in a line: Total cholesterol (TC) level in liver of mice with the high-fat diet. The conditions noted are these: high-fat feed 12 weeks, compared with high-fat diet group. The procedure: as §1
as §2, with “xylitol. […]” for “xylitol.”

The test system is the same in data set [4]. The experiment in a line: Liver histopathology (H&E staining) of mice with the high-fat diet. The conditions noted are these: high-fat feed. The procedure: as §1, §2, §3
A liver tissue that had been fixed with 4% paraformaldehyde was taken and subjected to gradient dehydration in the dehydrator as follows: in 75% ethanol for 4 h, in 85% ethanol for 2 h, in 90% ethanol for 2 h, in 95% ethanol for 1 h, in absolute ethanol I for 30 min, and in absolute ethanol II for 30 min. A tissue obtained after complete dehydration was permeabilized 1 time with a mixed solution of absolute ethanol and xylene mixed in equal volumes, and then permeabilized 2 times with pure xylene for about 5 min to 10 min each time. […]

Data set [5] has the same test system. Briefly: Serum ALT level of mice with the high-fat diet. The settings on record: high-fat feed 12 weeks, compared with high-fat diet group. The procedure: as §1
as §2, with “xylitol. […]” for “xylitol.”

The subject of data set [6] is patient with a high blood or liver lipid level. The experiment in a line: Lipid-lowering method in patient or individual with a high blood or liver lipid level. An excerpt: A lipid-lowering method was provided, including: a drug was orally administered to or injected into a patient with a high blood or liver lipid level, where an active ingredient of the drug was D-arabitol.
A lipid-lowering method was provided, including: an individual with a high blood or liver lipid level was allowed to take a health care product or a food, where the health care product or the food included D-arabitol as an active ingredient.

Data set [7] deals with patient with a liver damage caused by a high blood or liver lipid level. The experiment in a line: Hepatoprotection method in patient or individual with a liver damage caused by a high blood or liver lipid level. The text has this:
A hepatoprotection method was provided, including: a drug was orally administered to or injected into a patient with a liver damage caused by a high blood or liver lipid level, where an active ingredient of the drug was D-arabitol.
A hepatoprotection method was provided, including: an individual with a liver damage caused by a high blood or liver lipid level was allowed to take a health care product or a food, where the health care product or the food included D-arabitol as an active ingredient.

Regarding `O=C[C@@H](O)[C@H](O)[C@H](O)CO` [D-arabinose], in data set [1] (50 g/L in drinking water), the body weight ratio result is given as “did not have an effect of making a body weight ratio of mice significantly decrease”.

As for `OC[C@@H](O)C(O)[C@H](O)CO` [D-arabitol], the body weight ratio result is “start to significantly decrease from week 8” in data set [1] (20 g/L in drinking water) and “start to significantly decrease from week 4” in data set [1] (50 g/L in drinking water). Also, the “HDL-c concentration in serum” value in data set [2] (20 g/L in drinking water) and in data set [2] (50 g/L in drinking water) was “significantly reduce” throughout. Besides, the “LDL-c concentration in serum” value in data set [2] (20 g/L in drinking water) and in data set [2] (50 g/L in drinking water) was “significantly reduce” throughout. The “total TG in serum” value in data set [2] (50 g/L in drinking water) is recorded as “decreased significantly”. The “accumulation of TC in the liver” value in data set [3] (20 g/L in drinking water) and in data set [3] (50 g/L in drinking water) was “significantly reduce” each time. In addition, the “white vacuoles (lipid droplets) in the liver tissue, H&E staining” value in data set [4] (20 g/L in drinking water) and in data set [4] (50 g/L in drinking water) was “no obvious white vacuoles” throughout. The “serum ALT concentration” value in data set [5] (20 g/L in drinking water) and in data set [5] (50 g/L in drinking water) was “significantly reduce” in each case. For the same molecule, the “blood or liver lipid level in the patient” value in data set [6] (drug orally administered or injected, patient with a high blood or liver lipid level (Example 2)) is recorded as “decreased effectively”. Further, the “blood or liver lipid level in the individual” value in data set [6] (health care product or food taken by individual with a high blood or liver lipid level (Example 4)) was “decreased effectively”. Besides, the “liver function in the patient” value in data set [7] (drug orally administered or injected, patient with a liver damage caused by a high blood or liver lipid level (Example 3)) is given as “improved effectively”. The “liver function in the individual” value in data set [7] (health care product or food taken by individual with a liver damage caused by a high blood or liver lipid level (Example 5)) is recorded as “improved effectively”.

In the case of `O=C[C@H](O)[C@@H](O)[C@@H](O)CO` [L-arabinose], in data set [1] (50 g/L in drinking water), the body weight ratio entry is listed as “did not have an effect of making a body weight ratio of mice significantly decrease”.

As for `OC[C@H](O)C(O)[C@@H](O)CO` [L-arabitol, reference compound], in data set [1] (50 g/L in drinking water), the body weight ratio entry is “did not have an effect of making a body weight ratio of mice significantly decrease”. For the same molecule, in data set [4] (50 g/L in drinking water), the “liver cell structures, H&E staining (liver damage)” value was “liver cell structures disappeared” and the “white vacuoles (lipid droplets) in the liver tissue, H&E staining” value was “no significant white vacuoles”.

In the case of `OC[C@@H](O)[C@H](O)[C@@H](O)CO` [xylitol, Xylitol], the body weight ratio result in data set [1] (50 g/L in drinking water) is given as “did not have an effect of making a body weight ratio of mice significantly decrease”.

Source of the values: patent US20240415785A1, “USE OF D-ARABITOL IN LIPID-LOWERING AND HEPATOPROTECTION” (NANJING UNIVERSITY OF CHINESE MEDICINE, priority 2022, published 2024).
